Here are results for 56 molecules from the PolyMetriX glass transition set.

`*/C=C(/*)C(C)(C)C` (repeat unit) returned a glass transition temperature of 200.00 °C. To `*/C=C(/*)C(CCC)[Si](C)(C)CCCCCC` (repeat unit) belongs 40.00 °C; to `*C(=O)Nc1c(C)cc(Cc2cc(C)c(NC(=O)c3ccc4c(c3)C(=O)N(c3ccc(/N=N/c5ccc([N+](=O)[O-])cc5)c(N5C(=O)c6ccc(*)cc6C5=O)c3)C4=O)c(C)c2)cc1C` (repeat unit), 280.00 °C.

`*CCCCCCCCCCCCOc1ccc(C(C)Cc2ccc(-c3ccc(O*)cc3)cc2)cc1` (repeat unit) yielded a glass transition temperature of 40.00 °C. The same measure for `*CCCCCCCCCCCOC(=O)c1cc(OCCCCCCCCOc2ccc(/N=N/c3ccc(OC)cc3)cc2)cc(C(=O)OCCCCCCCCCCCOc2ccc(-c3ccc(O*)cc3)cc2)c1` (repeat unit): 60.00 °C; for `*CCCCCCCCNC(=O)Cc1ccc(CC(=O)N*)cc1` (repeat unit): 110.00 °C. The same measure for `*CCCCCCNC(=O)Cc1ccc(C(=O)N*)cc1` (repeat unit): 104.00 °C. To `*CCCCCCOC(=O)c1cc(OCCCCCCOc2ccc(/N=N/c3ccc(C#N)cc3)cc2)cc(C(=O)OCCCCCCN2C(=O)c3ccc(-c4ccc(-c5ccc6c(c5)C(=O)N(*)C6=O)cc4)cc3C2=O)c1` (repeat unit) belongs 67.00 °C; to `*CCCCCCOC(=O)c1cc(OCCCCCCOc2ccc(/N=N/c3ccc(C#N)cc3)cc2)cc(C(=O)OCCCCCCn2c(=O)c3cc4c(=O)n(*)c(=O)c4cc3c2=O)c1` (repeat unit), 46.00 °C; to `*CCCNC(=O)Cc1ccc(C(=O)N*)cc1` (repeat unit), 109.00 °C.

`*CCN(CCOC(=O)c1cc(OCCN(C)c2ccc(S(=O)(=O)CCCCCCCC)cc2)cc(C(=O)O*)c1)c1ccc(S(=O)(=O)C(F)(F)C(F)(F)C(F)(F)C(F)(F)C(F)(F)C(F)(F)C(F)(F)C(F)(F)F)cc1` (repeat unit) had a glass transition temperature of 80.00 °C. As for `*CCN(CCOC(=O)c1ccc(C(=O)O*)c(OCCC)c1)c1ccc(/N=N/c2ccc(-c3nc4cc([N+](=O)[O-])ccc4[nH]3)cc2)cc1` (repeat unit), the glass transition temperature is 152.00 °C. The same measure for `*CCOC(=O)Cc1ccc(C(=O)O*)cc1` (repeat unit): 24.00 °C. To `*Cc1cc2cc(C(=O)Nc3ccc(C(c4ccc(NC(=O)c5cc6cc(*)c(OC(=O)COc7ccc8ccc(=O)oc8c7)cc6oc5=O)cc4)(C(F)(F)F)C(F)(F)F)cc3)c(=O)oc2cc1OC(=O)COc1ccc2ccc(=O)oc2c1` (repeat unit) belongs 257.00 °C; to `*Cc1cc2cc(C(=O)Nc3ccc(NC(=O)c4cc5cc(*)c(OC(=O)COc6ccc7ccc(=O)oc7c6)cc5oc4=O)cc3)c(=O)oc2cc1OC(=O)COc1ccc2ccc(=O)oc2c1` (repeat unit), 252.00 °C; to `*Cc1cc2cc(C(=O)Nc3ccc(Oc4ccc(NC(=O)c5cc6cc(*)c(OC(=O)COc7ccc8ccc(=O)oc8c7)cc6oc5=O)cc4)cc3)c(=O)oc2cc1OC(=O)COc1ccc2ccc(=O)oc2c1` (repeat unit), 226.00 °C. Consider `*Cc1ccc(COC(=O)Cc2ccc(C(=O)O*)cc2)cc1` (repeat unit), for which the glass transition temperature came out at 47.00 °C. To `*Nc1ccc(CC(C)(C)NC(=O)CCCCC(*)=O)cc1` (repeat unit) belongs 130.00 °C; to `*Nc1ccc(CC(C)(C)NC(=O)c2ccc(C(*)=O)cc2)cc1` (repeat unit), 175.00 °C. To `*OC(=O)Cc1ccc(CC(*)=O)cc1` (repeat unit) belongs 65.00 °C; to `*Oc1ccc(CC(NC(=O)CCc2ccc(OC(=O)CC(C)CCC(*)=O)cc2)C(=O)OC(C)CC)cc1` (repeat unit), 45.00 °C; to `*Oc1ccc(CC(NC(=O)CCc2ccc(OC(=O)CC(C)CCC(*)=O)cc2)C(=O)OCCCC)cc1` (repeat unit), 35.00 °C. To `*Oc1ccc(CC(NC(=O)CCc2ccc(OC(=O)CCC(*)=O)cc2)C(=O)OC(C)C)cc1` (repeat unit) belongs 82.00 °C.

Regarding `*Oc1ccc(CC(NC(=O)CCc2ccc(OC(=O)CCC(*)=O)cc2)C(=O)OC(C)CC)cc1` (repeat unit), the glass transition temperature is 75.00 °C. Molecule `*Oc1ccc(CC(NC(=O)CCc2ccc(OC(=O)CCC(C)CC(*)=O)cc2)C(=O)OC)cc1` (repeat unit) had a glass transition temperature of 53.00 °C. To `*Oc1ccc(CC(NC(=O)CCc2ccc(OC(=O)CCCC(*)=O)cc2)C(=O)OC(C)C)cc1` (repeat unit) belongs 68.00 °C; to `*Oc1ccc(CC(NC(=O)CCc2ccc(OC(=O)CCCC(*)=O)cc2)C(=O)OC)cc1` (repeat unit), 76.00 °C; to `*Oc1ccc(CC(NC(=O)CCc2ccc(OC(=O)CCCC(*)=O)cc2)C(=O)OCC(C)C)cc1` (repeat unit), 62.00 °C.

In the case of `*Oc1ccc(CC(NC(=O)CCc2ccc(OC(=O)CCCC(*)=O)cc2)C(=O)OCCCCCCCC)cc1` (repeat unit), the glass transition temperature turned out to be 32.50 °C. The same measure for `*Oc1ccc(CC(NC(=O)CCc2ccc(OC(=O)CCCC(*)=O)cc2)C(=O)OCCOCCOCC)cc1` (repeat unit): 21.00 °C; for `*Oc1ccc(CC(NC(=O)CCc2ccc(OC(=O)CCCCC(*)=O)cc2)C(=O)OC)cc1` (repeat unit): 70.00 °C. To `*Oc1ccc(CC(NC(=O)CCc2ccc(OC(=O)CCCCCCC(*)=O)cc2)C(=O)OC(C)CC)cc1` (repeat unit) belongs 46.00 °C; to `*Oc1ccc(CC(NC(=O)CCc2ccc(OC(=O)CCCCCCC(*)=O)cc2)C(=O)OCCCCCC)cc1` (repeat unit), 27.00 °C; to `*Oc1ccc(CC(NC(=O)CCc2ccc(OC(=O)CCCCCCC(*)=O)cc2)C(=O)OCCCCCCCC)cc1` (repeat unit), 22.00 °C.

Molecule `*Oc1ccc(CC(NC(=O)CCc2ccc(OC(=O)CCCCCCC(*)=O)cc2)C(=O)OCCCCCCCCCCCC)cc1` (repeat unit) came in with a glass transition temperature of 15.00 °C. For the molecule `*Oc1ccc(CC(NC(=O)CCc2ccc(OC(=O)CCCCCCC(*)=O)cc2)C(=O)OCCOCCOCC)cc1` (repeat unit), the glass transition temperature came out at 6.00 °C.

Molecule `*Oc1ccc(CC(NC(=O)CCc2ccc(OC(=O)CCCCCCCCC(*)=O)cc2)C(=O)OC(C)C)cc1` (repeat unit) had a glass transition temperature of 44.00 °C. The same measure for `*Oc1ccc(CC(NC(=O)CCc2ccc(OC(=O)CCCCCCCCC(*)=O)cc2)C(=O)OCCOCCOCC)cc1` (repeat unit): 2.00 °C; for `*Oc1ccc(CC(NC(=O)Cc2ccc(OC(=O)CC(C)CCC(*)=O)cc2)C(=O)OCC)cc1` (repeat unit): 63.00 °C; for `*Oc1ccc(CC(NC(=O)Cc2ccc(OC(=O)CCC(*)=O)cc2)C(=O)OCC)cc1` (repeat unit): 75.50 °C. The same measure for `*Oc1ccc(CC(NC(=O)Cc2ccc(OC(=O)CCCC(*)=O)cc2)C(=O)OCC)cc1` (repeat unit): 65.00 °C; for `*Oc1ccc(CC(NC(=O)Cc2ccc(OC(=O)CCCCC(*)=O)cc2)C(=O)OCCCCCC)cc1` (repeat unit): 36.00 °C; for `*Oc1ccc(CC(NC(=O)Cc2ccc(OC(=O)CCCCC(*)=O)cc2)C(=O)OCCCCCCCC)cc1` (repeat unit): 28.00 °C. In turn, `*Oc1ccc(CC(NC(=O)Cc2ccc(OC(=O)CCCCCCC(*)=O)cc2)C(=O)OCCCCCC)cc1` (repeat unit) came in with a glass transition temperature of 27.00 °C. The same measure for `*Oc1ccc(CC(NC(=O)Cc2ccc(OC(=O)COCC(*)=O)cc2)C(=O)OCC)cc1` (repeat unit): 66.00 °C. The same measure for `*c1c(C)cc(Cc2cc(C)c(N3C(=O)c4ccc(Oc5c(C)cc(Cc6cc(C)c(Oc7ccc8c(c7)C(=O)N(*)C8=O)c(C)c6)cc5C)cc4C3=O)c(C)c2)cc1C` (repeat unit): 264.00 °C; for `*c1ccc(CC(=O)Nc2ccc(Cc3ccc(NC(=O)Cc4ccc(-c5sc(*)c(-c6ccccc6)c5-c5ccccc5)cc4)cc3)cc2)cc1` (repeat unit): 227.00 °C. The same measure for `*c1ccc(CC(=O)Nc2cccc(NC(=O)Cc3ccc(-c4sc(*)c(-c5ccccc5)c4-c4ccccc4)cc3)c2)cc1` (repeat unit): 228.00 °C; for `*c1ccc(Cc2ccc(-n3c(=O)c4cc5c(=O)n(*)c(=O)c5cc4c3=O)c(C(C)(C)C)c2)cc1C(C)(C)C` (repeat unit): 217.00 °C; for `*c1ccc(Cc2ccc(N3C(=O)C4CCC5C(=O)N(*)C(=O)C5C4C3=O)c(C)c2)cc1C` (repeat unit): 340.00 °C.

Regarding `*c1ccc(Cc2ccc(N3C(=O)c4ccc(S(=O)(=O)c5ccc6c(c5)C(=O)N(*)C6=O)cc4C3=O)c(C(C)(C)C)c2)cc1C(C)(C)C` (repeat unit), the glass transition temperature turned out to be 336.00 °C. `*c1ccc(Cc2ccc(N3C(=O)c4ccc(Sc5ccc6c(c5)C(=O)N(*)C6=O)cc4C3=O)c(C(C)(C)C)c2)cc1C(C)(C)C` (repeat unit) showed a glass transition temperature of 300.50 °C. `*c1ccc(Oc2c(C)cc(Cc3cc(C)c(Oc4ccc(N5C(=O)c6ccc(-c7ccc8c(c7)C(=O)N(*)C8=O)cc6C5=O)cc4)c(C)c3)cc2C)cc1` (repeat unit) gave a glass transition temperature of 310.00 °C.

Molecule `*c1ccc(Oc2ccc(-c3ccc(Oc4ccc(N5C(=O)c6ccc(Oc7c(C)cc(Cc8cc(C)c(Oc9ccc%10c(c9)C(=O)N(*)C%10=O)c(C)c8)cc7C)cc6C5=O)cc4)cc3)cc2)cc1` (repeat unit) came in with a glass transition temperature of 248.00 °C. The same measure for `*c1ccc2c(c1)C(=O)N(c1ccc(Cc3ccc(N4C(=O)c5ccc(C(*)(C(F)(F)F)C(F)(F)F)cc5C4=O)c(C(C)(C)C)c3)cc1C(C)(C)C)C2=O` (repeat unit): 274.00 °C.

Take `*c1cccc(N2C(=O)c3cccc(Oc4c(C)cc(Cc5cc(C)c(Oc6cccc7c6C(=O)N(*)C7=O)c(C)c5)cc4C)c3C2=O)c1` (repeat unit): the glass transition temperature amounted to 269.00 °C.
